Our source for the Activity, IC50 and selectivity ratio values is ChEMBL document CHEMBL4842376, “Design, synthesis and biological evaluation of novel hybrids targeting mTOR and HDACs for potential treatment of hepatocellular carcinoma” (Eur J Med Chem, 2021).

In general, IC50 refers to the concentration that gives 50% inhibition.

Where only a bound is given, the exact number is not on record here.

Series [1] has as its system HepG2. As to the kind of experiment: Induction of cell cycle arrest in human HepG2 cells assessed as accumulation of cells in G2/M phase at 1.5 uM measured after 24 hrs by propidium iodide staining based flow cytometry analysis (Rvb= 17.8 to 18.5%). In kind it is functional. For orientation: A flow cytometer gives signals particle by particle.
Series [2] deals with HepG2. As to the kind of experiment: Antimigratory activity in human HepG2 cells assessed as reduction in wound closure measured after 24 to 48 hrs by scratch wound healing assay. Type of series: functional, cell-based. The conditions noted are these: dose 1.5-6 µM, time 24-48 hrs.
Series [3] deals with HepG2. As to the kind of experiment: Induction of cell cycle arrest in human HepG2 cells assessed as accumulation of cells in G0/G1 phase at 6 uM measured after 24 hrs by propidium iodide staining based flow cytometry analysis (reference value: 52.7 to 63.2%). Type of series: functional.
Series [4] relates to HepG2. Briefly: Antiproliferative activity against human HepG2 cells assessed as inhibition of cell growth measured after 72 hrs by MTT assay. Conditions: HepG2, 72 h. In kind it is functional, cell-based. On the technique in general: Tetrazolium dyes change colour on reduction, which living cells bring about.
In the next series the test system is HCT-116. Briefly: cells. In kind it is functional, cell-based. The conditions noted are these: Homo sapiens, HCT-116, 72 h.
The subject of a further series is SNU-423. Briefly: Antiproliferative activity against human SNU-423 cells assessed as inhibition of cell growth measured after 72 hrs by MTT assay. In kind it is functional, cell-based. Conditions: SNU-423, 72 h.
The test system of series [5] is HepG2. As to the kind of experiment: Induction of cell cycle arrest in human HepG2 cells assessed as accumulation of cells in G2/M phase at 6 uM measured after 24 hrs by propidium iodide staining based flow cytometry analysis (Rvb= 17.8 to 18.5%). Type of series: functional.
The test system of the next series is MCF7. As to the kind of experiment: cells. Type of series: functional, cell-based. The conditions noted are these: Homo sapiens, MCF7, 72 h.
The next series can be described thus: in vitro. The conditions noted are these: human, L02 cells versus HepG2 cells.
In series [6] the test system is HepG2. As to the kind of experiment: Induction of apoptosis in human HepG2 cells assessed as live cells at 10 uM measured after 24 hrs by Annexin V-FITC/PI staining based flow cytometry analysis (Rvb= 84.6%). Type of series: functional.
A further series has as its system PLC-PRF-5. As to the kind of experiment: Antiproliferative activity against human PLC-PRF-5 cells assessed as inhibition of cell growth measured after 72 hrs by MTT assay. The conditions noted are these: PLC-PRF-5, 72 h. In kind it is functional, cell-based.
Series [7] concerns HepG2. Briefly: Induction of apoptosis in human HepG2 cells assessed as live cells at 2.5 uM measured after 24 hrs by Annexin V-FITC/PI staining based flow cytometry analysis (Rvb= 84.6%). Type of series: functional.
Series [8] has as its target T1, Protein deacetylase HDAC6 (Homo sapiens, UniProt Q9UBN7).
T1 sequence (Q9UBN7 whole entry): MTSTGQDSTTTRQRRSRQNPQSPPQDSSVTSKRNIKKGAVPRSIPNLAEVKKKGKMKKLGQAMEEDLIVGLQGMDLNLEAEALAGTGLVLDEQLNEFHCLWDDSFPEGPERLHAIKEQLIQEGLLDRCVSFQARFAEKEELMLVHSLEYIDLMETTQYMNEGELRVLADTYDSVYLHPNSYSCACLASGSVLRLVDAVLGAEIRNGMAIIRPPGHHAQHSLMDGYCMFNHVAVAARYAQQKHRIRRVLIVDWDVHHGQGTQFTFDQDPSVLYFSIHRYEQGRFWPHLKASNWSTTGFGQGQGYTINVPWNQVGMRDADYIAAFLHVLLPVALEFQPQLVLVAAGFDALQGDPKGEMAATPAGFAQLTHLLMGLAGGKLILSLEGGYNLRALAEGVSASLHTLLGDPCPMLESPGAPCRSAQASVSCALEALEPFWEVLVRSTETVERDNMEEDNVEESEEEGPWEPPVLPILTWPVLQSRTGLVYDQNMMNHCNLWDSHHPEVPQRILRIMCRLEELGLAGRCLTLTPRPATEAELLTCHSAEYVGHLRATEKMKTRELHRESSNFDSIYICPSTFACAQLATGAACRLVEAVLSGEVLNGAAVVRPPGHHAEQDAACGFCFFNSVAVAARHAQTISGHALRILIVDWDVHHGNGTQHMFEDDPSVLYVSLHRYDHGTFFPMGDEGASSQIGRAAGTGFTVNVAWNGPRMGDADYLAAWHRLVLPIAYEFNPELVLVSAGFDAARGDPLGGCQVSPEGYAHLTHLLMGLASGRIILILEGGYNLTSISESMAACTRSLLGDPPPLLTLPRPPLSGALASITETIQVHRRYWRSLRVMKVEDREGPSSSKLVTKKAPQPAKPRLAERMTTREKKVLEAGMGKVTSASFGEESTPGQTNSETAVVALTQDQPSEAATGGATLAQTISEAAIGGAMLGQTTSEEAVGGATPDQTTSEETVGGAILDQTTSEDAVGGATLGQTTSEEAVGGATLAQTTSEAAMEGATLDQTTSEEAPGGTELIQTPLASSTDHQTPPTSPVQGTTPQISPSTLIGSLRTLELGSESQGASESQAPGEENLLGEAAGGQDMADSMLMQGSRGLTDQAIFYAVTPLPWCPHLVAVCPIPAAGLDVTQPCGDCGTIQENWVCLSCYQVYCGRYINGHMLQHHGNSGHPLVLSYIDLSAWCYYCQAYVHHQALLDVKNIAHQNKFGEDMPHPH
Briefly: Inhibition of HDAC6 (unknown origin) using Ac-peptide as a substrate pretreated for 15 mins followed by substrate addition.

The test system of series [9] is HepG2. As to the kind of experiment: Induction of apoptosis in human HepG2 cells assessed as dead cells at 10 uM measured after 24 hrs by Annexin V-FITC/PI staining based flow cytometry analysis (Rvb= 0.082%). Type of series: functional.
Series [10] has as its system HepG2. Briefly: Induction of cell cycle arrest in human HepG2 cells assessed as accumulation of cells in G2/M phase at 3 uM measured after 24 hrs by propidium iodide staining based flow cytometry analysis (reference value: 17.8 to 18.5%). In kind it is functional.
The next series relates to A549. Briefly: cells. In kind it is functional, cell-based. The conditions noted are these: Homo sapiens, A549, 72 h.
For series [11], the system named is HepG2. Briefly: Induction of apoptosis in human HepG2 cells assessed as live cells at 5 uM measured after 24 hrs by Annexin V-FITC/PI staining based flow cytometry analysis (Rvb= 84.6%). Type of series: functional.
In a further series the target is T2, Histone deacetylase 8 (Homo sapiens, UniProt Q9BY41).
T2 sequence (Q9BY41 whole entry): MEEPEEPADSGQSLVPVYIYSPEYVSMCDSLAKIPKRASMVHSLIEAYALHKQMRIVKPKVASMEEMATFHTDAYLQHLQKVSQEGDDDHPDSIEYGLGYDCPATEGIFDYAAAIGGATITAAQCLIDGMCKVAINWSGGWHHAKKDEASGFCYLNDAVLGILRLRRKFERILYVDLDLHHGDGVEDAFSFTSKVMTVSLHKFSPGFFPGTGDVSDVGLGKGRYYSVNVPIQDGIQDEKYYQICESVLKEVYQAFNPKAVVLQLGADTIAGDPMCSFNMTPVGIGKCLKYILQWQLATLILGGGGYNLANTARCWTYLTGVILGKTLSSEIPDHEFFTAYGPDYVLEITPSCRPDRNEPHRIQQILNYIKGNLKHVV
Briefly: Inhibition of HDAC8 (unknown origin) using Ac-peptide as a substrate pretreated for 15 mins followed by substrate addition.

The next series concerns MDA-MB-231. Briefly: cells. Type of series: functional, cell-based. Conditions: Homo sapiens, MDA-MB-231, 72 h.

Description for A549: Antiproliferative activity against human A549 cells assessed as inhibition of cell growth measured after 72 hrs by MTT assay
Description for HCT-116: Antiproliferative activity against human HCT-116 cells assessed as inhibition of cell growth measured after 72 hrs by MTT assay
Description for MCF7: Antiproliferative activity against human MCF7 cells assessed as inhibition of cell growth measured after 72 hrs by MTT assay
Description for MDA-MB-231: Antiproliferative activity against human MDA-MB-231 cells assessed as inhibition of cell growth measured after 72 hrs by MTT assay
Description for in vitro: Selectivity index, ratio of IC50 for cytotoxicity against human L02 cells to IC50 for antiproliferative activity against human HepG2 cells

On to `Nc1nc2cc(-c3nn(CCCCCCC(=O)NO)c4ncnc(N)c34)ccc2o1`, for which the Activity with HepG2 [1] was 14.8%; with HepG2 [2], “Dose-Dependent Effect”; in the series with HepG2 [3], 73.3%; in the series on HepG2 [5] it was 15.7%; in the series on HepG2 [6], 42.2%; in the series with HepG2 [7] it was 63.7%. In addition, the figures for the Activity with HepG2 [9], with HepG2 [10] and in the series on HepG2 [11] were 0.26%, 10.8% and 69.6%, respectively. In addition, the IC50 is 1.61 µM in the series on HepG2 [4]; 5.39 µM in the series on HCT-116; 6.1 µM in the series with SNU-423; 11.8 µM in the series on MCF7; over 50 µM in the series on PLC-PRF-5; 0.0103 µM in series [8]. Besides, the IC50 was determined as 33 µM with A549, 0.231 µM on Histone deacetylase 8 and 8.43 µM in the series with MDA-MB-231. Further, the selectivity ratio in “in vitro” worked out at 15.4.
Consider `Nc1ncnc2c1c(-c1cnc3[nH]ccc3c1)nn2CCCCCCCCC(=O)NO`, for which the Activity in the series with HepG2 [1] is 19.4%; in the series with HepG2 [2] it was “Dose-Dependent Effect”; in the series with HepG2 [3] it was 66.6%; with HepG2 [5], 23.5%; with HepG2 [6], 62%; with HepG2 [7] it was 69.7%. In addition, the Activity is 0.56% in the series on HepG2 [9], 18.6% with HepG2 [10] and 77.5% in the series with HepG2 [11]. The IC50 came to 3.05 µM with HepG2 [4]; 5.46 µM in the series on HCT-116; 7.5 µM in the series with SNU-423; 24.7 µM in the series on MCF7; 14.9 µM in the series with PLC-PRF-5; 0.00954 µM in [8]. Further, the IC50 in the series on A549 turned out to be 12.2 µM; at Histone deacetylase 8, 0.733 µM; in the series on MDA-MB-231 it was 11 µM. Moreover, the selectivity ratio in “in vitro” is 11.5.
